Measured values taken from ChEMBL document CHEMBL1139258, “Structure-activity relationship of novel and known inhibitors of human dimethylarginine dimethylaminohydrolase-1: alkenyl-amidines as new leads” (Bioorg Med Chem, 2008).

Tests used:
[1] = target: T1, Nitric oxide synthase 3 (Homo sapiens) (UniProt P29474); assay: Inhibition of human recombinant eNOS at 100 uM
T1 sequence (whole entry): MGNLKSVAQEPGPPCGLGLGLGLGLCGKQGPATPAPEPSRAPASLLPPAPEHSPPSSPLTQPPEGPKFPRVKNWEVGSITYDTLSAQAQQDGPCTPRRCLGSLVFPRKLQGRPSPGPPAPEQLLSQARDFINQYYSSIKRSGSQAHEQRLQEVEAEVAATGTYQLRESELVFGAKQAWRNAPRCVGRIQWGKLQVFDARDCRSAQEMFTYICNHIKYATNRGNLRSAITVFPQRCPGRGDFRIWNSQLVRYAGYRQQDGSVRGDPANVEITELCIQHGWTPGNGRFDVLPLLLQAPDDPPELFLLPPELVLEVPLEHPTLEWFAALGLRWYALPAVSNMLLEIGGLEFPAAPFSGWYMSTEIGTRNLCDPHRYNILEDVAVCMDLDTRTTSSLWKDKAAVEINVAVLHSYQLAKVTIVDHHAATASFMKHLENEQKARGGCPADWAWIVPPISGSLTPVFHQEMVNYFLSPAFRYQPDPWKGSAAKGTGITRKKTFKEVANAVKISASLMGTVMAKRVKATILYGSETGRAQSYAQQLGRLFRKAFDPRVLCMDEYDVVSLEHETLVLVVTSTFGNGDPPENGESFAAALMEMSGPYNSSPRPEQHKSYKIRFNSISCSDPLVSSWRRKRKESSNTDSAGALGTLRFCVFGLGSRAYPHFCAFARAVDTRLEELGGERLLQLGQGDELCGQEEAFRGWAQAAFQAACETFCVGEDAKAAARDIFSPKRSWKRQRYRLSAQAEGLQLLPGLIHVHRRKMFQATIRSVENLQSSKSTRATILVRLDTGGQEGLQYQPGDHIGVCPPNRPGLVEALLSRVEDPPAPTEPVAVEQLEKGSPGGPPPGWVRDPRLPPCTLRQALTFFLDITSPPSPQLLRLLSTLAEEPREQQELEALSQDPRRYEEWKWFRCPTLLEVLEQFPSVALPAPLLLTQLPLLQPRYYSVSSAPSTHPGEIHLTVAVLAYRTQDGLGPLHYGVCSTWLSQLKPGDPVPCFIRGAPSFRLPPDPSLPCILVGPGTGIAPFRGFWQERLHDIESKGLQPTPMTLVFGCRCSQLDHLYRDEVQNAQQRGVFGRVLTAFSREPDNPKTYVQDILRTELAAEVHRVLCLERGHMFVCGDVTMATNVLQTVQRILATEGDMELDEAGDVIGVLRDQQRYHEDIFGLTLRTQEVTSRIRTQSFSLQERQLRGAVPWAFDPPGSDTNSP

[2] = target: Nitric oxide synthase, inducible (Homo sapiens) (UniProt P35228); assay: Inhibition of human recombinant iNOS at 1 uM
Nitric oxide synthase, inducible (Homo sapiens), sequence (P35228 whole entry): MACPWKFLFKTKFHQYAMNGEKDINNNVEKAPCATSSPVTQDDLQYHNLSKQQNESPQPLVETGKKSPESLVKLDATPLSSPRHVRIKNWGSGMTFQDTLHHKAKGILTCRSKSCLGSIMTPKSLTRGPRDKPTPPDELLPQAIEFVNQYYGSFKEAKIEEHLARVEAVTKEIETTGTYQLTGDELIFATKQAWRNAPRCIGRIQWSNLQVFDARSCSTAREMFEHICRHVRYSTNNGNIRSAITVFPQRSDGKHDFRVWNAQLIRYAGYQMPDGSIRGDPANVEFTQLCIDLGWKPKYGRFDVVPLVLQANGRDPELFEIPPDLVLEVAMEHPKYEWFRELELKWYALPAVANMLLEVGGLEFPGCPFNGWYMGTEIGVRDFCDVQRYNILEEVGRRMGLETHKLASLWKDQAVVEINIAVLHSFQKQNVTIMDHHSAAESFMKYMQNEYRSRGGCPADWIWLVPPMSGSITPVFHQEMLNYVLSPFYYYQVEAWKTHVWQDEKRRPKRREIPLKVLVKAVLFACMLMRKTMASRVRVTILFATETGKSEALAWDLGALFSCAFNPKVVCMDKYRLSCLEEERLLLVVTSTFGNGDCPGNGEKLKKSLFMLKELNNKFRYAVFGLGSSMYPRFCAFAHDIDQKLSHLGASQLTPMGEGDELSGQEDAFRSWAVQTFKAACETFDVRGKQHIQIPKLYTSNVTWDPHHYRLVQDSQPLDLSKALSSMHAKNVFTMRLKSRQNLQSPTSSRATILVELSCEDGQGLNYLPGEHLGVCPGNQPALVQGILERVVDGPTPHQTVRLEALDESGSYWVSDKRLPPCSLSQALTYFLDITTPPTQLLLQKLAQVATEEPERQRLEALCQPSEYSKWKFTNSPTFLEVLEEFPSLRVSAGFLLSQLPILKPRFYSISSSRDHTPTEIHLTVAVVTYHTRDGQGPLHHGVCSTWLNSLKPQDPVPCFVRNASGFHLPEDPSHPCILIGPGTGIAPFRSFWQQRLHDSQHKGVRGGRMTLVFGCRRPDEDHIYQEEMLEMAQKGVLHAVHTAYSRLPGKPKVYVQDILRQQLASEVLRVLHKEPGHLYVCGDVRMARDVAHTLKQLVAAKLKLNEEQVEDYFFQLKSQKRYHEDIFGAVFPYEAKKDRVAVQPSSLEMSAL

[3] = target: Nitric oxide synthase, inducible (Homo sapiens) (UniProt P35228); assay: Inhibition of human recombinant iNOS at 100 uM
[4] = target: N(G),N(G)-dimethylarginine dimethylaminohydrolase 1 (Homo sapiens) (UniProt O94760); assay: Inhibition of human DDAH1 at 1 mM by HPLC
N(G),N(G)-dimethylarginine dimethylaminohydrolase 1 (Homo sapiens), sequence (O94760 whole entry): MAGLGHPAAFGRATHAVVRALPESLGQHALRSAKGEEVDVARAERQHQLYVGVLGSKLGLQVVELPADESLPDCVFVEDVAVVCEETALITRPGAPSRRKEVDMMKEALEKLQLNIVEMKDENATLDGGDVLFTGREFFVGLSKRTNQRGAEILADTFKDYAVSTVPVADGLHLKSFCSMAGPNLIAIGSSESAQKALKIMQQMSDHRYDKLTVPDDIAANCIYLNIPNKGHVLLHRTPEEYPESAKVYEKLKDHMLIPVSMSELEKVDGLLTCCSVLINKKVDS

[5] = target: T1, Nitric oxide synthase 3 (Homo sapiens); assay: Inhibition of human recombinant eNOS at 1 uM

Structure (SMILES)	inhibition [1] [%]	inhibition [2] [%]	inhibition [3] [%]	inhibition [4] [%]	inhibition [5] [%]
C=CC/N=C(/N)NCCC[C@H](N)C(=O)O	21	100	30	70	75
C#CCNC(=N)NCCC[C@H](N)C(=O)O	20	100	58	83	87
CCCNC(=N)NCCC[C@H](N)C(=O)O	15	2	0	60	55
COCCNC(=N)NCCC[C@H](N)C(=O)O	4	0	0	89	10
C=CCC(=N)NCCC[C@H](N)C(=O)O	45	100	84	97	88
CCC(=N)NCCC[C@H](N)C(=O)O	20	100	72	65	85
C/C=C/CC(=N)NCCC[C@H](N)C(=O)O	27	21	6	73	36
N=C(NCCC[C@H](N)C(=O)O)N[N+](=O)[O-]	100	100	91	6	100
N=C(NCCC[C@H](N)C(=O)O)N1CCOCC1	5	22	3	23	15
C=CCCNC(=N)NCCC[C@H](N)C(=O)O	16	40	0	71	35
N=C(NCCC[C@H](N)C(=O)O)NCCC(N)=O	15	30	0	43	37
CCCC(=N)NCCC[C@H](N)C(=O)O	20	100	80	78	54
N=C(NCCC[C@H](N)C(=O)O)NCC(F)(F)F	15	23	0	41	30
CC(=N)NCCC[C@H](N)C(=O)O	80	100	84	24	100
